Patent publication US9265253B2, “Use of macrocyclic picolinamides as fungicides” (DOW AGROSCIENCES LLC, priority 2013, dated 2016)

test system: Glomerella lagenarium; Anamorph: Colletotrichum lagenarium; assay: Cucumber Anthracnose (COLLLA) disease control; type: in vivo; conditions: Colletotrichum orbiculare, topical, 24 h, 1 Day Protectant, read-out: Disease Control COLLLA 1 DP
Description: Technical grades of materials were dissolved in acetone, which were then mixed with nine volumes of water containing 110 ppm Triton X-100. The fungicide solutions were applied onto wheat seedlings using an automated booth sprayer to run-off. All sprayed plants were allowed to air dry prior to further handling. All fungicides were evaluated using the aforementioned method for their activity vs. all target diseases. Wheat leaf blotch and brown rust activity were also evaluated using track spray applications, in which case the fungicides were formulated as EC formulations, containing 0.1% Trycol 5941 in the spray solutions. Wheat plants (variety Yuma) were grown from seed in a greenhouse in 50% mineral soil/50% soil-less Metro mix until the first leaf was fully emerged, with 7-10 seedlings per pot. These plants were inoculated with an aqueous spore suspension of Septoria tritici either prior to or after fungicide treatments. After inoculation the plants were kept in 100% relative humidity (one day in a dark dew chamber followed by two to three days in a lighted dew chamber at 20° C.) to permit spores to germinate and infect the leaf. The plants were then transferred to a greenhouse set at 20° C. for disease to develop. When disease symptoms were fully expressed on the 1st leaves of untreated plants, infection levels were assessed on a scale of 0 to 100 percent disease severity. Percent disease control was calculated using the ratio of disease severity on treated plants relative to untreated plants. Cucumber seedlings (variety Bush Pickle) were propagated in soil-less Metro mix, with each pot having one plant, and used in the test when 12 to 14 days old. Test plants were inoculated with an aqueous spore suspension of Colletotrichum lagenarium 24 hr after fungicide treatments. After inoculation the plants were kept in a dew room at 22° C. with 100% relative humidity for 48 hr to permit spores to germinate and infect the leaf. The plants were then transferred to a growth room set at 22° C. for disease to develop. Fungicide formulation, application and disease assessment on the sprayed leaves followed the procedures as described in the Example A.

Row | Compound | pest or weed control at 100 ppm
1 | CCOCC(=O)OCOc1c(OC)ccnc1C(=O)N[C@H]1CCC[C@H](Cc2ccc(F)cc2)[C@@H](OCC(C)C)[C@H](C)OC1=O [Compound F168] | 80 to 100%
2 | COc1ccnc(C(=O)N[C@H]2CCC[C@H](CC3CCCC3)[C@@H](OCC3CC3)[C@H](C)OC2=O)c1OCOC(C)=O [Compound F117] | 80 to 100%
3 | COc1ccnc(C(=O)N[C@H]2CCC[C@H](Cc3ccc(F)cc3F)[C@@H](OCC(C)C)[C@H](C)OC2=O)c1OCOC(C)=O [Compound F145] | 80 to 100%
4 | COc1ccnc(C(=O)N[C@H]2CCC[C@H](CC(F)F)[C@@H](Oc3ccccc3)[C@H](C)OC2=O)c1OCOC(C)=O [Compound F138] | 80 to 100%
5 | CCCO[C@@H]1[C@@H](Cc2ccc(OC)cc2)CCC[C@H](NC(=O)c2nccc(OC)c2OCOC(C)=O)C(=O)O[C@H]1C [Compound F119] | 80 to 100%
6 | COc1ccnc(C(=O)N[C@H]2CCC[C@H](Cc3ccccc3)[C@@H](OCC(C)C)[C@H](C)OC2=O)c1OCOC(=O)C(C)C [Compound F151] | 80 to 100%
7 | COc1ccnc(C(=O)N[C@H]2CCC[C@H](Cc3ccccc3)[C@@H](Oc3ccccc3)[C@H](C)OC2=O)c1OCOC(C)=O [Compound F108] | 80 to 100%
8 | COc1ccc(C[C@H]2CCC[C@H](NC(=O)c3nccc(OC)c3OCOC(C)=O)C(=O)O[C@@H](C)[C@@H]2OCC(C)C)cc1 [Compound F118] | 80 to 100%
9 | COc1ccnc(C(=O)N[C@H]2CCC[C@H](Cc3ccc(F)cc3F)[C@@H](OC(=O)c3ccco3)[C@H](C)OC2=O)c1OCOC(=O)C(C)C [Compound F157] | 80 to 100%
10 | COc1ccnc(C(=O)N[C@H]2CCC[C@H](Cc3ccc(C)cc3)[C@@H](OCC(C)C)[C@H](C)OC2=O)c1OCOC(C)=O [Compound F126] | 80 to 100%

test system: Erysiphe cichoracearum; assay: Powdery Mildew of Cucumber (ERYSCI) disease control; type: in vivo; conditions: Golovinomyces cichoracearum, topical, 24 h, 1 Day Protectant, read-out: Disease Control ERYSCI 1 DP
Description: Technical grades of materials were dissolved in acetone, which were then mixed with nine volumes of water containing 110 ppm Triton X-100. The fungicide solutions were applied onto wheat seedlings using an automated booth sprayer to run-off. All sprayed plants were allowed to air dry prior to further handling. All fungicides were evaluated using the aforementioned method for their activity vs. all target diseases. Wheat leaf blotch and brown rust activity were also evaluated using track spray applications, in which case the fungicides were formulated as EC formulations, containing 0.1% Trycol 5941 in the spray solutions. Wheat plants (variety Yuma) were grown from seed in a greenhouse in 50% mineral soil/50% soil-less Metro mix until the first leaf was fully emerged, with 7-10 seedlings per pot. These plants were inoculated with an aqueous spore suspension of Septoria tritici either prior to or after fungicide treatments. After inoculation the plants were kept in 100% relative humidity (one day in a dark dew chamber followed by two to three days in a lighted dew chamber at 20° C.) to permit spores to germinate and infect the leaf. The plants were then transferred to a greenhouse set at 20° C. for disease to develop. When disease symptoms were fully expressed on the 1st leaves of untreated plants, infection levels were assessed on a scale of 0 to 100 percent disease severity. Percent disease control was calculated using the ratio of disease severity on treated plants relative to untreated plants. Cucumber seedlings (variety Bush Pickle) were grown in soil-less Metro mix, with one plant per pot, and used in the test when 12 to 14 days old. Plants were inoculated with a spore suspension 24 hr following fungicide treatments. After inoculation the plants remained in the greenhouse set at 20° C. until disease was fully expressed. Fungicide formulation, application and disease assessment on the sprayed leaves followed the procedures as described in the Example A.

Row | Compound | pest or weed control at 100 ppm
11 | COc1ccnc(C(=O)N[C@H]2CCC[C@H](CC3CCCC3)[C@@H](OCC3CC3)[C@H](C)OC2=O)c1OCOC(C)=O [Compound F117] | 80 to 100%
12 | COc1ccnc(C(=O)N[C@H]2CCC[C@H](Cc3ccc(F)cc3F)[C@@H](OCC(C)C)[C@H](C)OC2=O)c1OCOC(C)=O [Compound F145] | 80 to 100%
13 | CCCO[C@@H]1[C@@H](Cc2ccc(OC)cc2)CCC[C@H](NC(=O)c2nccc(OC)c2OCOC(C)=O)C(=O)O[C@H]1C [Compound F119] | 80 to 100%
14 | COc1ccnc(C(=O)N[C@H]2CCC[C@H](Cc3ccccc3)[C@@H](OCC(C)C)[C@H](C)OC2=O)c1OCOC(=O)C(C)C [Compound F151] | 80 to 100%
15 | COc1ccc(C[C@H]2CCC[C@H](NC(=O)c3nccc(OC)c3OCOC(C)=O)C(=O)O[C@@H](C)[C@@H]2OCC(C)C)cc1 [Compound F118] | 0 to 80%
16 | COc1ccnc(C(=O)N[C@H]2CCC[C@H](Cc3ccc(C)cc3)[C@@H](OCC(C)C)[C@H](C)OC2=O)c1OCOC(C)=O [Compound F126] | 80 to 100%

test system: Uncinula necator; assay: Grape Powdery Mildew (UNCINE) disease control; type: in vivo; conditions: Erysiphe necator, topical, 24 h, 1 Day Protectant, read-out: Disease Control UNCINE 1 DP
Description: Technical grades of materials were dissolved in acetone, which were then mixed with nine volumes of water containing 110 ppm Triton X-100. The fungicide solutions were applied onto wheat seedlings using an automated booth sprayer to run-off. All sprayed plants were allowed to air dry prior to further handling. All fungicides were evaluated using the aforementioned method for their activity vs. all target diseases. Wheat leaf blotch and brown rust activity were also evaluated using track spray applications, in which case the fungicides were formulated as EC formulations, containing 0.1% Trycol 5941 in the spray solutions. Wheat plants (variety Yuma) were grown from seed in a greenhouse in 50% mineral soil/50% soil-less Metro mix until the first leaf was fully emerged, with 7-10 seedlings per pot. These plants were inoculated with an aqueous spore suspension of Septoria tritici either prior to or after fungicide treatments. After inoculation the plants were kept in 100% relative humidity (one day in a dark dew chamber followed by two to three days in a lighted dew chamber at 20° C.) to permit spores to germinate and infect the leaf. The plants were then transferred to a greenhouse set at 20° C. for disease to develop. When disease symptoms were fully expressed on the 1st leaves of untreated plants, infection levels were assessed on a scale of 0 to 100 percent disease severity. Percent disease control was calculated using the ratio of disease severity on treated plants relative to untreated plants. Grape seedlings (variety Carignane) were grown in soil-less Metro mix, with one plant per pot, and used in the test when approximately one month old. Plants were inoculated 24 hr after fungicide treatment by shaking spores from infected leaves over test plants. Plants were maintained in a greenhouse set at 20° C. until disease was fully developed. Fungicide formulation, application and disease assessment on the sprayed leaves followed the procedures as described in the Example A.

Row | Compound | pest or weed control at 100 ppm
17 | CCOCC(=O)OCOc1c(OC)ccnc1C(=O)N[C@H]1CCC[C@H](Cc2ccc(F)cc2)[C@@H](OCC(C)C)[C@H](C)OC1=O [Compound F168] | 80 to 100%
18 | COc1ccnc(C(=O)N[C@H]2CCC[C@H](CC3CCCC3)[C@@H](OCC3CC3)[C@H](C)OC2=O)c1OCOC(C)=O [Compound F117] | 80 to 100%
19 | COc1ccnc(C(=O)N[C@H]2CCC[C@H](Cc3ccc(F)cc3F)[C@@H](OCC(C)C)[C@H](C)OC2=O)c1OCOC(C)=O [Compound F145] | 80 to 100%
20 | COc1ccnc(C(=O)N[C@H]2CCC[C@H](CC(F)F)[C@@H](Oc3ccccc3)[C@H](C)OC2=O)c1OCOC(C)=O [Compound F138] | 0 to 80%
21 | COc1ccnc(C(=O)N[C@H]2CCC[C@H](Cc3ccccc3)[C@@H](Oc3ccccc3)[C@H](C)OC2=O)c1OCOC(C)=O [Compound F108] | 80 to 100%
22 | COc1ccnc(C(=O)N[C@H]2CCC[C@H](Cc3ccc(F)cc3F)[C@@H](OC(=O)c3ccco3)[C@H](C)OC2=O)c1OCOC(=O)C(C)C [Compound F157] | 80 to 100%

test system: Blumeria graminis f. sp. hordei; Synonym: Erysiphe graminis f. sp. hordei; assay: Barley Powdery Mildew (ERYSGH) disease control; type: in vivo; conditions: Blumeria graminis, 24 h, 1 Day Protectant, read-out: Disease Control ERYSGH 1 DP
Description: Technical grades of materials were dissolved in acetone, which were then mixed with nine volumes of water containing 110 ppm Triton X-100. The fungicide solutions were applied onto wheat seedlings using an automated booth sprayer to run-off. All sprayed plants were allowed to air dry prior to further handling. All fungicides were evaluated using the aforementioned method for their activity vs. all target diseases. Wheat leaf blotch and brown rust activity were also evaluated using track spray applications, in which case the fungicides were formulated as EC formulations, containing 0.1% Trycol 5941 in the spray solutions. Wheat plants (variety Yuma) were grown from seed in a greenhouse in 50% mineral soil/50% soil-less Metro mix until the first leaf was fully emerged, with 7-10 seedlings per pot. These plants were inoculated with an aqueous spore suspension of Septoria tritici either prior to or after fungicide treatments. After inoculation the plants were kept in 100% relative humidity (one day in a dark dew chamber followed by two to three days in a lighted dew chamber at 20° C.) to permit spores to germinate and infect the leaf. The plants were then transferred to a greenhouse set at 20° C. for disease to develop. When disease symptoms were fully expressed on the 1st leaves of untreated plants, infection levels were assessed on a scale of 0 to 100 percent disease severity. Percent disease control was calculated using the ratio of disease severity on treated plants relative to untreated plants. Barley seedlings (variety Harrington) were propagated in soil-less Metro mix, with each pot having 8 to 12 plants, and used in the test when first leaf was fully emerged. Test plants were inoculated by dusting with infected stock plants 24 hr after fungicide treatments. After inoculation the plants were kept in a greenhouse set at 20° C. for disease to develop. Fungicide formulation, application and disease assessment on the sprayed leaves followed the procedures as described in the Example A.

Row | Compound | pest or weed control at 100 ppm
23 | CCOCC(=O)OCOc1c(OC)ccnc1C(=O)N[C@H]1CCC[C@H](Cc2ccc(F)cc2)[C@@H](OCC(C)C)[C@H](C)OC1=O [Compound F168] | 80 to 100%
24 | COc1ccnc(C(=O)N[C@H]2CCC[C@H](CC3CCCC3)[C@@H](OCC3CC3)[C@H](C)OC2=O)c1OCOC(C)=O [Compound F117] | 80 to 100%
25 | COc1ccnc(C(=O)N[C@H]2CCC[C@H](Cc3ccc(F)cc3F)[C@@H](OCC(C)C)[C@H](C)OC2=O)c1OCOC(C)=O [Compound F145] | 80 to 100%
26 | COc1ccnc(C(=O)N[C@H]2CCC[C@H](CC(F)F)[C@@H](Oc3ccccc3)[C@H](C)OC2=O)c1OCOC(C)=O [Compound F138] | 0 to 80%
27 | COc1ccnc(C(=O)N[C@H]2CCC[C@H](Cc3ccccc3)[C@@H](OCC(C)C)[C@H](C)OC2=O)c1OCOC(=O)C(C)C [Compound F151] | 80 to 100%
28 | COc1ccnc(C(=O)N[C@H]2CCC[C@H](Cc3ccccc3)[C@@H](Oc3ccccc3)[C@H](C)OC2=O)c1OCOC(C)=O [Compound F108] | 0 to 80%
